Laboratory results from a melting point compilation (Tetko et al.; mined from patent text by program, amines drawn as free bases though some values may be those of a salt).

Row | melting point | SMILES
1 | 89.5 to 90.5 °C | COC(=O)CC(NCc1ccccc1)=C(C(=O)OC)C(=O)C(F)(F)F
2 | 165 to 166 °C | COC1(C)CC(NC(=O)C(F)(F)F)C(O)(NC(=O)C(F)(F)F)C(C)O1 (stereo unspecified)
3 | 197 to 199 °C | CCCN1N=C2C(=Cc3ccccc3)CS(=O)(=O)CC2C1c1ccccc1 (stereo unspecified)
4 | 182 to 183 °C | COc1cc(NC(=O)OCc2ccccc2)c(Cl)cc1C(=O)O
5 | 218 °C | CCOc1ccc2c(c1)n(C1CCCCC1)c(=O)n2S(=O)(=O)c1ccc(C(=O)NC(C)(C)CO)cc1OC
6 | 87 °C | O=c1[nH]c(=O)n(C2CC(F)C(CO)O2)cc1C(Cl)=CI (stereo unspecified)
7 | 145 to 147 °C | CN1C(c2ccc(F)cc2)=NC(C(F)(F)F)(C(F)(F)F)C1CC(=O)c1ccc(F)cc1 (stereo unspecified)
8 | 187 to 188 °C | CCCOc1ccccc1-c1nc(NCC)cc(=O)[nH]1
9 | 258 to 260 °C | O=C(c1c[nH]c2cc(Br)ccc12)C(F)(F)F
10 | > 310 °C | Cc1ccc2c(c1)c(=O)[nH]c1c2c2ccccc2n1C
11 | 79.5 °C | CN1CCN(c2nn3ccnc3c3c2CCCC3)CC1
12 | 110 °C | Cc1cccc(C(=O)c2cccc(N)c2)c1
13 | 132 °C | Nc1cc(=O)n(Cc2ccc(Cl)c(C(F)(F)F)c2)[nH]1
14 | 143 to 144 °C | CC(=O)OC1C(CO)OC(NC(=O)N(CCCl)N=O)C(OC(C)=O)C1OC(C)=O (stereo unspecified)
15 | 240 to 241 °C | CN1C2=C(CSC2)C(=O)Nc2cccnc21
16 | 106 °C | CN(C)c1cccc2c(S(=O)(=O)Nc3ccc4nonc4c3)cccc12
17 | 201 to 205 °C | COC(=O)CCC1=C(C)C2=NC1(CCC(=O)OC)C(C)C1(CCC#N)NC(C)(C=C3C=CC(=N3)C=c3ccc([nH]3)=C2)C(CCC#N)=C1C (stereo unspecified)
18 | 118 to 120 °C | O=C(Nc1ccc(Oc2ccnc(NC3CC3)n2)c2ccccc12)c1cc(F)cc(N2CCOCC2)c1
19 | 103 to 104 °C | CN1c2cccc3c2N(CCC3)S1(=O)=O
20 | 87 to 90 °C | CCCCCS(=O)(=O)NCC(=O)O
21 | > 250 °C | NCC1Cc2cc(C(F)(F)F)cc(-c3ccc(Cl)cc3)c2O1 (stereo unspecified)
22 | 230 to 232 °C | N#Cc1ccc(NC(=O)c2cccc(S(=O)(=O)N3CCOCC3)c2)c(-c2nnn[nH]2)c1
23 | 141 to 143 °C | CCOCc1c(-c2ccc(OC(F)F)c(OC3CC3)c2)[nH]c2cn[nH]c(=O)c12
24 | 259 to 260 °C | O=C1CCCc2c(-c3ccncc3)[nH]c(-c3ccccc3)c21
25 | 91 to 92 °C | CCOC(=O)c1cc2cc(Oc3ccc(S(C)(=O)=O)cc3)cc(OCc3nccn3C)c2[nH]1

Row | melting point | SMILES
26 | 164 to 165 °C | CCCN(CCC)C(=O)Cc1ccc(O)c2[nH]ncc12
27 | 113 to 116 °C | CCCCCCCCn1nnc(C(C(=O)Nc2c(OC)cc(OC)cc2OC)c2ccccc2)n1 (stereo unspecified)
28 | 200 °C | O=CN(Cn1cc(Cl)cnc1=O)c1ccccc1
29 | 88 to 89 °C | C#CCOc1cc(-n2nnn(CC)c2=O)c(Cl)cc1F
30 | 141 to 143 °C | CC(C)c1oc(-c2ccccc2)nc1CC(=O)O
31 | 140 to 143 °C | CCCCc1nc(C(=O)CC)c(C#N)n1C(c1ccccc1)(c1ccccc1)c1ccccc1
32 | 118 to 119 °C | O=C1CC(OCc2ccccc2)C2COC1O2 (stereo unspecified)
33 | 73 to 74 °C | CC(C)(C)c1cc(C(=O)Sc2ccccn2)cc(C(C)(C)C)c1
34 | 175 to 178 °C | CC(C)Nc1nc2cc(F)c(F)c(F)c2n1[C@@H]1O[C@H](C)[C@@H](O)[C@H]1O
35 | 198 to 199 °C | Cc1cccc(C(=O)Nc2nc(-c3ccccc3)c(-c3ccc(=O)n(C(C)C)n3)s2)c1
36 | 102 to 106 °C | O=[N+]([O-])c1nccn1C(Br)CBr (stereo unspecified)
37 | 181 to 182 °C | COc1ccc(CCOc2cncc(-c3cccc(C(=O)O)c3)c2)cc1OC
38 | 164 to 167 °C | ON=c1ccccc2cnccc12
39 | 135 to 140 °C | O=c1cc(CCO)c2cc(F)ccc2n1Cc1cc(Br)c(Br)c(Br)c1
40 | 255 °C | COc1ccc(N2CCN(c3ccc(N4C(=O)NC(C)(C)C4=O)cc3)CC2)cc1
41 | 87 to 92 °C | COc1c(CC(=O)O)cccc1Oc1ccccc1Cl
42 | 163 to 164 °C | CC(C)OCCNC(=O)c1n[nH]cc1NC(=O)c1ccccn1
43 | 73 to 75 °C | O=C(NCCNCCNC(=O)OCc1ccccc1)OCc1ccccc1
44 | 177 to 181 °C | O=C(O)c1cc(-c2ccc3c(c2)CCO3)nn(CC=Cc2ccc(Cl)cc2)c1=O
45 | 235 to 239 °C | CCS(=O)(=O)N1CCC(NC(=O)Nc2ccc(OC(F)(F)F)cc2)CC1
46 | 111 to 114 °C | CCc1cn(-c2ncccn2)c2c1C(=O)CC(C)(C)C2
47 | 87 to 88 °C | C=CCOc1cc2c(cc1C=CC)N(CC=C(C)C)C(=O)CC2
48 | 141 °C | COCCOc1cc(Oc2ccccc2)cnc1Nc1nccs1
49 | 308 to 310 °C | O=c1[nH]c2cc(Cl)c(F)c([N+](=O)[O-])c2[nH]c1=O
50 | 80.6 to 82 °C | COc1cccc(Cc2snnc2-c2ccco2)c1

Row | melting point | SMILES
51 | 170 to 174 °C | O=C(CN1CCC(Cc2ccccc2)CC1)Nc1ccc2[nH]ncc2c1
52 | 57 to 58 °C | CC(C)C(=O)c1nccnc1SCc1ccco1
53 | 267 °C | CSc1cc2c(cn1)c(=O)n1nccc1n2C
54 | 48 to 50 °C | CCCCCCCCCCOc1cc(N)cc(OCCCCCCCCCC)c1
55 | 230 °C | O=c1ccc(-c2cc(F)cc(F)c2)n[nH]1
56 | 138 to 140 °C | NC(=O)c1cn(C(CO)CCc2cccc3ccccc23)cn1 (stereo unspecified)
57 | 118 to 120 °C | CCOC(=O)c1c(C)cc2c(c1C)C(=O)OC2(C)O (stereo unspecified)
58 | 135 to 136 °C | CCN(CC)C(=O)COC(=O)c1cc(S(N)(=O)=O)c(Cl)cc1NCc1ccco1
59 | 134 to 137 °C | N#Cc1ccc(C(CC(=O)O)N2C(=O)c3ccccc3C2=O)cc1 (stereo unspecified)
60 | 128 to 129 °C | CCCC(CCC)NC(=O)c1ccc2oc(OCC)nc2c1
61 | 219 to 220 °C | O=C(Cl)c1cccc(N2CCOCC2)c1
62 | 106 to 108 °C | CSC(=CC(=O)c1ccccc1)CC(=O)c1ccccc1
63 | 130 to 132 °C | COc1ccc(-c2nc(C(=O)NCCc3ccccn3)sc2-c2ccc(OC)cc2)cc1
64 | 219 to 220 °C | CC(C)Cn1c(CNC(=O)OC(C)(C)C)c(-c2ccccc2)c2cc(OC(C)(C)C(N)=O)ccc2c1=O
65 | 120 °C | COc1ccc(CSc2nc(-c3ccccc3)n(Cc3cc4c(cc3Cl)OCO4)c2C=O)cc1
66 | 190 to 193 °C | O=C(O)Cc1c(C(=O)c2ccccc2)[nH]c2c(Cl)cccc12
67 | 242 to 244 °C | CN1CCN(c2ccc3c(=O)n4c(nc3c2)C(=O)c2cc(F)ccc2-4)CC1
68 | 248 to 250 °C | O=C(NC(Cc1ccc(OCc2cccc(F)c2)cc1)C(=O)O)c1cn2ccc(-c3ccc(Cl)cc3)cc2n1 (stereo unspecified)
69 | 231 to 233 °C | CC(C)CCn1cc(C(=O)c2ccccc2)c(=O)c2cn(C)nc21
70 | 180 to 182 °C | Cc1ccc(Sc2cc([N+](=O)[O-])cc3c2C(=O)OC3=O)cc1
71 | 58 °C | CCCCC(=O)C(Cc1ccc(C(=O)OC)cc1)c1ccccc1 (stereo unspecified)
72 | 150 to 153 °C | CC(=O)OC1CSC(Oc2cccc(C(C)=O)c2)C(OC(C)=O)C1OC(C)=O (stereo unspecified)
73 | 173 to 174 °C | Cc1oc(-c2ccc3ccccc3c2)nc1/C=C/c1ccc(CO)cc1
74 | 205 to 207 °C | N#Cc1cc(Cl)cc(Oc2ccc(CC(=O)Nc3ccc(S(N)(=O)=O)cc3Cl)cc2Br)c1
75 | 139 to 141 °C | CC(=O)Nc1ccc(C(C)=C(Cl)Cl)cc1[N+](=O)[O-]

Row | melting point | SMILES
76 | 253 to 254 °C | COC(=O)C(=O)Nc1cccc(C(=O)Nc2nnn[nH]2)c1
77 | 156 to 158 °C | Cn1nnnc1C(C=CC=O)=C(c1ccc(F)cc1)c1ccc(F)cc1
78 | 99 to 104 °C | COc1ccc(C(=O)Cc2c(Cl)cncc2Cl)c2c1OCC2C (stereo unspecified)
79 | 108 to 110 °C | COc1ccc(/C(=C\C=C\C(=O)NCCCCc2cccnc2)c2cccnc2)cc1
80 | 176 to 177 °C | CCCOc1ccccc1-c1nc2nc(N3CCOCC3)ncc2c(=O)[nH]1
81 | 150 to 152 °C | Oc1ccc(-c2nnn(-c3ccc(C(F)(F)F)cc3F)c2Cl)c(Cl)c1
82 | 117 °C | CCc1ccc(C#Cc2ccc(C=O)cc2)cc1
83 | 169 to 175 °C | N#CCC(=O)Nc1ccnn1-c1c(Cl)cc(C(F)(F)F)cc1Cl
84 | 208 to 214 °C | COc1cc(C(=O)NC2CCC(N(C)C)CC2)ccc1Nc1ncc2c(n1)N(C1CCCCC1)CC(F)(F)C(=O)N2C (stereo unspecified)
85 | 113 to 115 °C | CCc1cc(C)c(Br)c(CC)c1-c1c(OC(=O)OC)c(C)nn(C)c1=O
86 | 212 to 213 °C | CSC(=S)N1Cc2c(c3ccccc3n2C)CC1C(=O)O (stereo unspecified)
87 | 157 to 158 °C | CCCCCS(=O)(=O)NC(=O)c1ccc2[nH]cc(Cc3ccc(Cl)cc3Cl)c2c1
88 | 106 to 107 °C | COC(=O)Cc1cc(OCc2ccc3ccccc3n2)ccc1Nc1ccccc1
89 | 233 to 234 °C | Cc1cc2c(c3ccc(=O)[nH]c13)OC(CNC(=O)CCNC(=O)OCc1ccccc1)C2 (stereo unspecified)
90 | 101 to 102 °C | C[C@@H](O[Si](C)(C)C(C)(C)C)[C@@H]1C(=O)N[C@@H]1S(C)(=O)=O
91 | 153 to 155 °C | Cc1nc(-c2ccccc2)nc(-c2cccc([N+](=O)[O-])c2)c1C(=O)N1CCN(C)CC1
92 | 216 to 218 °C | O=C1COC(=O)N1C(c1ccccc1)(c1ccccc1)c1ccccc1
93 | 125 °C | COc1ccccc1NC(=O)Oc1ccc2c(c1)N(Cc1ccccc1)CCC2
94 | > 250 °C | Cc1c[nH]c2c([N+](=O)[O-])ccc(Cl)c2c1=O
95 | 81 to 83 °C | C=CCOc1ccc(CCNC(=O)NC)cc1OC
96 | > 300 °C | O=C1Cc2c([nH]c3ccc(Br)cc23)-c2ccccc2N1
97 | 275 to 280 °C | Cc1c2ccccc2c2c3c(cccc13)C(=O)OC2=O
98 | 157 to 163 °C | COc1cc(C(C)(C)CNC(=O)c2cccc(Br)c2)cc2c1OC(C)(C)C2

Row | SMILES | melting point
99 | CCOC(=O)CCC1CCN(c2ccc(C#N)c3ccccc23)CC1 | 106 to 107 °C
100 | Cc1nc(Cl)c2n1-c1ccccc1C(c1ccccc1F)N(C)C2 (stereo unspecified) | 156 to 158 °C
101 | COC(=O)c1ccc(C#CC2(O)CN3CCC2CC3)nc1 (stereo unspecified) | 180 to 182 °C
